Measured values from patent US7687651B2, “Method for the preparation of trans-or cis-diammoniumdichlorodihydroxoplatinum(IV) and the use thereof in the production of pharmaceutical active substances” (priority 2003, dated 2010).
“And” between values parts separate entries of the source, which are not always exact repeats. Identical values can stand only once.

Experiments:
Assay type in all cases: cell-based, human
[1] = tested on: Panc1 Pancreatic cancer; experiment: Cytotoxic activity of trans-oxoplatin, PANC1
Experimental: (§1) trans-Oxoplatin was tested on a panel of cell lines, using double steps and an initial concentration of 40 μg/ml. As the IC50 values were not reached in most cases, cell survival at the highest concentration is indicated.

[2] = tested on: G-292 Osteosarcoma; experiment: Cytotoxic activity of trans-oxoplatin, G-292; conditions: G-292 osteosarcoma cell line
Experimental: as §1

[3] = tested on: MiaPaCa2 Pancreatic cancer; experiment: Cytotoxic activity of trans-oxoplatin, MIAPaCa2; conditions: several values given
Experimental: as §1

[4] = tested on: HCT-15 Colon carcinoma; experiment: Cytotoxic activity of trans-oxoplatin, HCT-15
Experimental: as §1

[5] = tested on: CRO1A Carcinoid; experiment: Cytotoxic activity of trans-oxoplatin, CRO1A; conditions: several values given
Experimental: as §1

[6] = tested on: HL-60 Leukemia; experiment: Cytotoxic activity of trans-oxoplatin, HL-60
Experimental: as §1

[7] = tested on: Fib3 Fibroblasts; experiment: Cytotoxic activity of trans-oxoplatin, Fib3
Experimental: as §1

[8] = tested on: ASTRO Astrocytoma; experiment: Cytotoxic activity of trans-oxoplatin, ASTRO
Experimental: as §1

[9] = tested on: COLO 205 Colon carcinoma; experiment: Cytotoxic activity of trans-oxoplatin, COLO 205
Experimental: as §1

[10] = tested on: BxPC3 Pancreatic carcinoma; experiment: Cytotoxic activity of trans-oxoplatin, BxPC3
Experimental: as §1

[11] = tested on: K562 Leukemia; experiment: Cytotoxic activity of trans-oxoplatin, K562
Experimental: as §1

[12] = tested on: U-87-MG Astrocytoma; experiment: Cytotoxic activity of trans-oxoplatin, U-87-MG
Experimental: as §1

[13] = tested on: T-47D breast cancer; experiment: Cytotoxic activity of trans-oxoplatin, T-47D
Experimental: as §1

[14] = tested on: WI-38 Embryonic lung fibroblasts; experiment: Cytotoxic activity of trans-oxoplatin, WI-38
Experimental: as §1

[15] = tested on: SW620 Colon carcinoma; experiment: Cytotoxic activity of trans-oxoplatin, SW620; conditions: SW 620 colon carcinoma cell line
Experimental: as §1

[16] = tested on: HOS Osteosarcoma; experiment: Cytotoxic activity of trans-oxoplatin, HOS
Experimental: as §1

[17] = tested on: MDA-MB-231 Breast cancer; experiment: Cytotoxic activity of trans-oxoplatin, MDA-MB-231; conditions: several values given
Experimental: as §1

[18] = tested on: ACHN Renal carcinoma; experiment: Cytotoxic activity of trans-oxoplatin, ACHN
Experimental: as §1

Structure (SMILES): [NH2][Pt]([NH2])([OH])([OH])([Cl])[Cl] [TRAXO, trans-Oxoplatin]
- % Survival with 40 μg/ml TRAXO [1]: 100%
- activity against the cell line [2]: considerable activity
- % Survival with 40 μg/ml TRAXO [3]: 92% and 83%
- % Survival with 40 μg/ml TRAXO [4]: 100%
- % Survival with 40 μg/ml TRAXO [5]: 87% and 104% and 70%
- % Survival with 40 μg/ml TRAXO ([6]; HL-60, 40 μg/ml): 0.5%
- activity against the cell line ([6]; HL-60 leukemia cell line): considerable activity
- % Survival with 40 μg/ml TRAXO [7]: 91%
- % Survival with TRAXO (20 μg/ml indicated) ([8]; 20 μg/ml): 82%
- % Survival with 40 μg/ml TRAXO ([8]; 40 μg/ml): 71%
- % Survival with 40 μg/ml TRAXO [9]: 109%
- sensitivity of the cell line [10]: non-sensitive
- % Survival with 40 μg/ml TRAXO ([10]; 40 μg/ml): 106%
- % Survival with 40 μg/ml TRAXO [11]: 97%
- % Survival with 40 μg/ml TRAXO [12]: 100%
- sensitivity of the cell line [13]: non-sensitive
- % Survival with 40 μg/ml TRAXO ([13]; 40 μg/ml): 101%
- % Survival with 40 μg/ml TRAXO ([14]; WI-38, 40 μg/ml): 21%
- activity against the cell line ([14]; WI-38 embryonic pulmonary fibroblast cell line): considerable activity
- activity against the cell line [15]: considerable activity
- activity against the cell line ([16]; HOS osteosarcoma cell line): considerable activity
- % Survival with 40 μg/ml TRAXO ([16]; HOS, 40 μg/ml): 4.3%
- % Survival with 40 μg/ml TRAXO [17]: 70% and 103% and 106%
- activity against the cell line ([18]; ACHN renal carcinoma cell line): considerable activity
- % Survival with 40 μg/ml TRAXO ([18]; ACHN, 40 μg/ml): 48%
